In patent publication US20080064052A1, “Crystal of a Receptor-Ligand Complex and methods of use” (priority 2006, published 2008):
Values joined by “and” are separate entries in the source; they are usually repeats but may differ in a detail not shown here. Identical values can stand only once. Like-named read-outs stand apart in the source and are kept apart here. Ends that are not written are not given here. Peptide text beside a SMILES is read from it. * marks the point of attachment. Biotin = O=C1N[C@H]2[C@H](CS[C@H]2CCCCC(=O)*)N1

T1: mouse EphB4 ectodomain Fc fusion protein (Mus musculus, UniProt P54761)
T1 sequence (P54761 16-539 limits assumed): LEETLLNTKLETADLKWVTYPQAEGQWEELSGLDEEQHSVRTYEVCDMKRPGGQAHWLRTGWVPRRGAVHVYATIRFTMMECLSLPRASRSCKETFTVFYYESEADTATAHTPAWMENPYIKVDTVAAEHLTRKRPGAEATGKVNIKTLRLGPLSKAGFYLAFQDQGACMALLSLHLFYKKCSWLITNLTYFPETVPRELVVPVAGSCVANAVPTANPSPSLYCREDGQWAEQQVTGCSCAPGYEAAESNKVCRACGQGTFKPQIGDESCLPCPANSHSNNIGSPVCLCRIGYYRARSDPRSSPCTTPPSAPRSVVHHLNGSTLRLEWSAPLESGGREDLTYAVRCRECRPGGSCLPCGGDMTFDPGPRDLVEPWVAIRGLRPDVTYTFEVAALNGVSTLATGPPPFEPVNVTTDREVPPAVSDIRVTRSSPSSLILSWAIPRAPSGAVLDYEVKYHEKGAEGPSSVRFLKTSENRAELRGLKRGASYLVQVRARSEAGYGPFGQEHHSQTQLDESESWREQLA

T2: human EphB4 ephrin-binding domain (Homo sapiens, UniProt P54760)
T2 sequence (P54760 17-196): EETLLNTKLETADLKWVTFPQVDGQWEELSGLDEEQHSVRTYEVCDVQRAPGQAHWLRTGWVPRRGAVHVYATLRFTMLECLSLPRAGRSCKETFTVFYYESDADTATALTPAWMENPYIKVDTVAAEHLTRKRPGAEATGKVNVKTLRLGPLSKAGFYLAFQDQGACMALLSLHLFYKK

T3: human EphB4 ephrin-binding domain, EphB4 (17-196) (human, UniProt P54760 17-196)
T3 sequence: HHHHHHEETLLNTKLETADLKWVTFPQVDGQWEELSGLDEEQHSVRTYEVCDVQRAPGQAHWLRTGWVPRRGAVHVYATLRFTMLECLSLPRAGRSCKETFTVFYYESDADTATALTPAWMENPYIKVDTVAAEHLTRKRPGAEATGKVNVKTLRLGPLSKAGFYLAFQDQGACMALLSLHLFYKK

T4: mouse EphB4 ectodomain Fc fusion protein (mouse EphB4-Fc-His, R&D Systems) (mouse, UniProt P54761 16-539)
T4 construct: extracellular domain; also called murine EphB4; not shown: Fc part of a bought fusion protein; His tag of the bought protein
T4 sequence (looked up): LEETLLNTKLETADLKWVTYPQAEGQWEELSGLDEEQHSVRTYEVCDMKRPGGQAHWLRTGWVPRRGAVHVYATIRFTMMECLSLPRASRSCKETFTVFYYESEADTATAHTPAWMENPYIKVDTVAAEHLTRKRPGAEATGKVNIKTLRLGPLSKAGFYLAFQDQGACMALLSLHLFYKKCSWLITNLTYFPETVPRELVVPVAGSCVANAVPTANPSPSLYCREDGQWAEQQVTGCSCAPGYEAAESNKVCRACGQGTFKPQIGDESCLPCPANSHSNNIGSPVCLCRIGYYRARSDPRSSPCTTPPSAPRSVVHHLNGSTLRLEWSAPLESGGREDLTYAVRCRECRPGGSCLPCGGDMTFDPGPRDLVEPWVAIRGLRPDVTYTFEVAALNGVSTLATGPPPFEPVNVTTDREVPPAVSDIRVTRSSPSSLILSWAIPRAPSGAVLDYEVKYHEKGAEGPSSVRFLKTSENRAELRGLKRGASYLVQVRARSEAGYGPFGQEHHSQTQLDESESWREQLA

B1: Eph-binding domain of human ephrin-B2 (ligand)
chain: IVLEPIYWNSSNSKFLPGQGLVLYPQIGDKLDIICPKVDSKTVGQYEYYKVYMVDKDQADRCTIKKENTPLLNCAKPDQDIKFTIKFQEFSPNLWGLEFQKNKDYYIISTSNGSLEGLDNQEGGVCQTRAMKILMKVG
B2: Human ephrin-B2 monomer (ligand)
chain: IVLEPIYWNSSNSKFLPGQGLVLYPQIGDKLDIICPKVDSKTVGQYEYYKVYMVDKDQADRCTIKKENTPLLNCAKPDQDIKFTIKFQEFSPNLWGLEFQKNKDYYIISTSNGSLEGLDNQEGGVCQTRAMKILMKVG
B3: NYLF-RAW peptide (NYLFSPNGPIARAW) (peptide)
peptide: NYLFSPNGPIARAW
B4: YLFS-RAW peptide (YLFSPNGPIARAW) (peptide)
peptide: YLFSPNGPIARAW
B5: TNYL-biotin peptide (TNYLFSPNGPIAGSGSK-biotin) (peptide)
peptide: TNYLFSPNGPIAGSGSK(Biotin)
B6: ephrin-B2 Fc (Fc fusion, not shown: a dimerising Fc or GST; large carriers; small tags and cut ends)
chain: RSIVLEPIYWNSSNSKFLPGQGLVLYPQIGDKLDIICPKVDSKTVGQYEYYKVYMVDKDQADRCTIKKENTPLLNCARPDQDVKFTIKFQEFSPNLWGLEFQKNKDYYIISTSNGSLEGLDNQEGGVCQTRAMKILMKVGQDASSAGSARNHGPTRRPELEAGTNGRSSTTSPFVKPNPGSSTDGNSAGHSGNNLLGSEVALFA

Key:
[1] = biological target: T1, mouse EphB4 ectodomain Fc fusion protein; test: ELISA competition: inhibition of mouse ephrin-B2 alkaline phosphatase (AP) binding to immobilized mouse EphB4 ectodomain Fc; details: murine receptor; for IC50: IC50 for inhibition of mouse ephrin-B2 AP binding to immobilized mouse EphB4 ectodomain Fc, ELISA binding assay
[2] = biological target: T2, human EphB4 ephrin-binding domain; test: Isothermal titration calorimetry (ITC) binding to EphB4 (17-196); details: 25° C., 50 mM Tris pH 7.8, 150 mM NaCl
Experimental: Peptides were dissolved into the same buffer used for the dialysis of EphB4. […] ITC experiments were performed with a Microcal MCS ITC at 25° C. Following an initial injection of 2 μl, titrations were performed by making 20 13 μl injections of peptide into EphB4 in the sample cell to produce an approximate final 2:1 ratio of injectant to sample in the cell. […] Prior to loading the sample cell, EphB4 was centrifuged at 18,000 g for 5 min at 4° C. to remove aggregates and degassed for 5 minutes at room temperature. […] Dilution data were fit to a line and subtracted from the corresponding titration data.

[3] = biological target: T3, human EphB4 ephrin-binding domain, …; test: ITC at 25 °C, 290 µM ephrin-B2 injected into 13 µM human EphB4 (17-196)
Experimental: Experiments were performed at 25° C. in 50 mM Tris pH 7.8, 150 mM NaCl, 1 mM CaCl₂.
(§1) Isothermal titration calorimetry and ELISA experiments: EphB4and ephrin-B2 were either dialyzed or buffer exchanged into 50 mM Tris-Cl (pH 7.8 at 25° C.), 150 mM NaCl, 1 mM CaCl₂, prior to use in calorimetry experiments. Peptides were dissolved into the same buffer used for the dialysis of EphB4. The concentration of EphB4, ephrin-B2 and the peptides was determined by measuring the A₂₈₀ and using the theoretical-extinction coefficient (Gill and von Hippel, 1989). ITC experiments were performed with a Microcal MCS ITC at 25° C. Following an initial injection of 2 μl, titrations were performed by making 20 13 μl injections of peptide into EphB4 in the sample cell to produce an approximate final 2:1 ratio of injectant to sample in the cell. For most titrations the sample cell contained 15 μM EphB4 and the injection syringe contained a 200 μM solution of the peptide. Titrations with ephrin-B2 contained 13 μM EphB4 in the sample cell and 290 μM ephrin-B2 in the syringe. Prior to loading the sample cell, EphB4 was centrifuged at 18,000 g for 5 min at 4° C. to remove aggregates and degassed for 5 minutes at room temperature. Corrections for heats of dilution for the peptides and ephrin-B2 were determined by performing titrations of peptide or ephrin-B2 solutions into buffer. Dilution data were fit to a line and subtracted from the corresponding titration data. Titration data were analyzed using Origin ITC software (Version 5.0, Microcal Software Inc.) and curves were fit to a single binding site model (Wiseman et al., 1989). […] A lower limit for the binding constant was determined by performing a titration in which the sample cell contained 30 μM EphB4 and the injection syringe contained a 1.45 mM solution of the peptide, producing a final ratio of peptide to EphB4 of 10:1.

[4] = biological target: T4, mouse EphB4 ectodomain Fc fusion …; test: competition ELISA: inhibition of mouse ephrin-B2 AP binding to immobilized mouse EphB4 ectodomain Fc
Experimental: The ability of peptides to compete the binding of mouse ephrin-B2 alkaline phosphatase to immobilized mouse EphB4-Fc-His (R&D Systems) was measured by ELISA as previously described (Koolpe et al., 2005).

[5] = biological target: T3, human EphB4 ephrin-binding domain, …; test: ITC at 25 °C, peptide injected into human EphB4 (17-196)
Experimental: as §1, with “10:1. The data was fit assuming a stoichiometry of 1 and at least 60% saturation of binding at the final peptide concentration (Turnbull and Daranas, 2003).” for “10:1.”

Molecule	IC50 [1]	TΔS ([2]; 1 mM CaCl2)	ΔG ([2]; 1 mM CaCl2)	ΔH ([2]; 1 mM CaCl2)	further results
CC[C@H](C)[C@H](NC(=O)[C@@H]1CCCN1C(=O)CNC(=O)[C@H](CC(N)=O)NC(=O)[C@@H]1CCCN1C(=O)[C@H](CO)NC(=O)[C@H](Cc1ccccc1)NC(=O)[C@@H](N)CC(C)C)C(=O)N[C@@H](C)C(=O)N[C@@H](CCCNC(=N)N)C(=O)N[C@@H](C)C(=O)N[C@@H](Cc1c[nH]c2ccccc12)C(=O)O [LFSP-RAW] (H-LFSPNGPIARAW-OH; N-terminus and C-terminus assumed)	> 10000 nM	2.1 ± 0.4 kcal/mol	-7.4 ± 0.1 kcal/mol	-5.3 ± 0.5 kcal/mol	–
CC[C@H](C)[C@H](NC(=O)[C@@H]1CCCN1C(=O)CNC(=O)[C@H](CC(N)=O)NC(=O)[C@@H]1CCCN1C(=O)[C@H](CO)NC(=O)[C@H](Cc1ccccc1)NC(=O)[C@H](CC(C)C)NC(=O)[C@H](Cc1ccc(O)cc1)NC(=O)[C@@H](N)CC(N)=O)C(=O)N[C@@H](C)C(=O)N[C@@H](CCCNC(=N)N)C(=O)N[C@@H](C)C(=O)N[C@@H](Cc1c[nH]c2ccccc12)C(=O)O [NYLF-RAW] (H-NYLFSPNGPIARAW-OH; N-terminus and C-terminus assumed)	40 nM	-5.7 ± 0.1 kcal/mol	-9.8 ± 0.1 kcal/mol	-15.5 ± 0.1 kcal/mol	–
CC[C@H](C)[C@H](NC(=O)[C@@H]1CCCN1C(=O)CNC(=O)[C@H](CC(N)=O)NC(=O)[C@@H]1CCCN1C(=O)[C@H](CO)NC(=O)[C@H](Cc1ccccc1)NC(=O)[C@H](CC(C)C)NC(=O)[C@H](Cc1ccc(O)cc1)NC(=O)[C@H](CC(N)=O)NC(=O)[C@@H](N)[C@@H](C)O)C(=O)N[C@@H](C)C(=O)N[C@@H](CCCNC(=N)N)C(=O)N[C@@H](C)C(=O)N[C@@H](Cc1c[nH]c2ccccc12)C(=O)O [TNYL-RAW] (H-TNYLFSPNGPIARAW-OH; N-terminus assumed)	~15 nM and 15 nM	-4.9 ± 0.2 kcal/mol	-9.8 ± 0.1 kcal/mol	-14.7 kcal/mol and -14.7 ± 0.2 kcal/mol	Kd ([2]; Kd, 1 mM CaCl2): 70 nM
CC[C@H](C)[C@H](NC(=O)[C@@H]1CCCN1C(=O)CNC(=O)[C@H](CC(N)=O)NC(=O)[C@@H]1CCCN1C(=O)[C@H](CO)NC(=O)[C@H](Cc1ccccc1)NC(=O)[C@H](CC(C)C)NC(=O)[C@H](Cc1ccc(O)cc1)NC(=O)[C@H](CC(N)=O)NC(=O)[C@@H](N)[C@@H](C)O)C(=O)N[C@@H](C)C(=O)O [TNYL]	~150000 nM and 150000 nM	–	–	-9.6 ± 0.3 kcal/mol	fold less potent than TNYL-RAW (IC50) ([1]; ratio of IC50 values): 10,000 fold; Kd ([2]; 1 mM CaCl2, read-out: Kd): ≥ 140000 nM
CC[C@H](C)[C@H](NC(=O)[C@@H]1CCCN1C(=O)CNC(=O)[C@H](CC(N)=O)NC(=O)[C@@H]1CCCN1C(=O)[C@H](CO)NC(=O)[C@H](Cc1ccccc1)NC(=O)[C@H](CC(C)C)NC(=O)[C@@H](N)Cc1ccc(O)cc1)C(=O)N[C@@H](C)C(=O)N[C@@H](CCCNC(=N)N)C(=O)N[C@@H](C)C(=O)N[C@@H](Cc1c[nH]c2ccccc12)C(=O)O [YLFS-RAW] (H-YLFSPNGPIARAW-OH; N-terminus and C-terminus assumed)	40 nM	-4.1 ± 0.4 kcal/mol	-9.7 ± 0.2 kcal/mol	-13.8 ± 0.5 kcal/mol	–
B1	–	–	–	–	Kd [3]: 40 nM; TΔS [3]: 13.4 kcal/mol; ΔG [3]: -10.2 kcal/mol; ΔH [3]: 3.3 kcal/mol
B2	–	–	–	–	IC50 [4]: 10 nM
B3	–	–	–	–	Kd [5]: 65 nM; TΔS [5]: -5.7 kcal/mol; ΔG [5]: -9.8 kcal/mol; ΔH [5]: -15.5 kcal/mol
B4	–	–	–	–	Kd [5]: 80 nM; TΔS [5]: -4.1 kcal/mol; ΔG [5]: -9.7 kcal/mol; ΔH [5]: -13.8 kcal/mol
B5	–	–	–	–	IC50 [4]: 50000 nM
B6	–	–	–	–	IC50 [4]: 9 nM
